One may read the IC50 as the concentration that gives 50% inhibition. The term T/C denotes the ratio of treated to control. A word on the melting point: it is the temperature of the solid-liquid transition.

We go through one compound from paper PMC10766984, “Josephin domain containing 2 (JOSD2) promotes lung cancer by inhibiting LKB1 (Liver kinase B1) activity” (Signal Transduction and Targeted Therapy, 2024).

Molecules are shown by their SMILES. Several values for one entry are separate records, joined by “and”; a condition that tells them apart may be missing. Identical values can stand only once.

Data set [1] deals with T1, Ataxin-3L (Homo sapiens, UniProt Q9H3M9).
T1 sequence (Q9H3M9 1-355): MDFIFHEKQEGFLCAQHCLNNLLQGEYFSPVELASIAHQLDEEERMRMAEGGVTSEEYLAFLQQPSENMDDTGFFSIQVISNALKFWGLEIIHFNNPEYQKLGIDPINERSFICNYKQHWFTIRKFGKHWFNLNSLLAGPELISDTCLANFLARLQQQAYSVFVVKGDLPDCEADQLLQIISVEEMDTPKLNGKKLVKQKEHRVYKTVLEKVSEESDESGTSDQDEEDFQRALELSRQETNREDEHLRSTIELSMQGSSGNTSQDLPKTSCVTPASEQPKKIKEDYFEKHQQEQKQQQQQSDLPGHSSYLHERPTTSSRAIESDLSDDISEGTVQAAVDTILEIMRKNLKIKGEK
As to the kind of experiment: In vitro ubiquitin-AMC assay with GST-Ataxin-3L. It counts as biochemical. The following applies: incubated with GST-Ataxin-3L at 37 °C for 30 min. From the text:
(§1) (means ± SD, n=3). […] (means ± SD, n=3). […] (means ± SD, n=3). […] (means ± SD, n=3).

For data set [2], the target named is JOSD1 (Homo sapiens, UniProt Q15040). As to the kind of experiment: In vitro ubiquitin-AMC assay with GST-JOSD1. Conditions: incubated with GST-JOSD1 at 37 °C for 30 min. It counts as biochemical.
Description: as §1

The subject of data set [3] is NCI-H358 cells. Kind of data set: Proliferation assay (SRB), 72 h. It counts as cell-based. The following applies: Homo sapiens, LKB1-WT. The protocol:
(§2) The indicated cell lines were treated with indicated compounds at a series of concentrations for 72 h, followed by cell proliferation assay and colony formation assay. Black dashed line indicates 50% of cell survival.
(§3) For cell proliferation assay, cells infected with lentiviruses packaged indicated plasmids were seeded indicated number cells per well in 96-well plates. Cell number (absorbance) was then estimated by the sulforhodamine B (SRB) (Sigma-Aldrich, #230162) assay and the absorbance of the individual wells was determined at the optical density of 515 nm. For colony formation assay, cells infected with lentiviruses packaged indicated plasmids were seeded indicated number cells per well in 6-well plates. Two weeks later, cells were stained with SRB and the numbers of colonies having more than 50 cells were counted.

Data set [4] has as its system NCI-H292 cells. As to the kind of experiment: Proliferation assay (SRB), 72 h. The following applies: Homo sapiens, LKB1-WT. It counts as cell-based. The protocol: as §2, §3
In data set [5] the test system is NCI-H1299 cells. Kind of data set: Proliferation assay (SRB), 72 h. It counts as cell-based. Conditions: Homo sapiens, LKB1-WT. The protocol:
as §2, §3

Data set [6] has as its system PC-9 cells. As to the kind of experiment: Proliferation assay (SRB), 72 h. It counts as cell-based. Conditions: Homo sapiens, LKB1-WT. The protocol: as §2, §3
The test system of data set [7] is LKB1-WT NSCLC cell lines. As to the kind of experiment: Proliferation assay, panel of LKB1-WT cell lines. It counts as cell-based. Conditions: average of four LKB1-WT cell lines, 72 h. The protocol: as §2, §3
The test system of data set [8] is NCI-H1299 cells. As to the kind of experiment: Apoptosis, IB of cell lysates after 72 h. The following applies: series of concentrations. It counts as cell-based.
Description: as §1

In data set [9] the test system is LKB1-null NSCLC cell lines. Kind of data set: Proliferation assay, panel of five LKB1-null cell lines. It counts as cell-based. Conditions: 72 h. The protocol:
as §3
(§4) (a) Proliferation assay in LKB1-null cells (means ± SD, n=3). […] Red dashed line indicates 50% of cell survival. (b) Proliferation assay in A549 harboring LKB1-null/WT/3KR (Top) and immunoblotting analysis showing the overexpression efficiency of LKB1-WT/3KR (Bottom). […] (means ± SD, n=3). (c) Representative images of in situ TUNEL assay of cancer cells inside tumor mass with or without JOSD2 inhibitor treatment. (means ± SD, n=3). n.s: P > 0.05; *P < 0.05; **P < 0.01.

The test system of data set [10] is NCI-H1299 xenografted tumors. As to the kind of experiment: Antitumor activity of HY041004 in vivo. Also on record: species or system BALB/c-Nude mice. The following applies: for Tumor Weight: at the endpoint; for T/C: RTVtreated / RTVcontrol. The protocol: as §2
Female BALB/c-Nude mice (4-5 weeks) were subcutaneously transplanted with 1 mm^3 NCI-H1299 xenograft tumor mass. […] The tumor volume was measured by a caliper every 2 days as soon as the tumor reached a palpable size. Relative tumor volume (RTV) was calculated by (RTV=TVt / TV0, where TV0 is the tumor volume measured when starting treatment). The T/C value was calculated as RTVtreated / RTVcontrol.

Data set [11] relates to NCI-H460 cells. Kind of data set: Proliferation assay in LKB1-null cells, 72 h. It counts as cell-based. Conditions: Homo sapiens. The protocol:
as §3, §4

For data set [12], the system named is NCI-H23 cells. As to the kind of experiment: Proliferation assay in LKB1-null cells, 72 h. It counts as cell-based. Conditions: Homo sapiens. The protocol: as §3, §4
Data set [13] deals with NCI-H838 cells. As to the kind of experiment: Proliferation assay in LKB1-null cells, 72 h. It counts as cell-based. Conditions: Homo sapiens. The protocol: as §3, §4
In data set [14] the test system is A549 cells. Kind of data set: Proliferation assay in LKB1-null cells, 72 h. It counts as cell-based. Conditions: Homo sapiens. The protocol: as §3, §4
For data set [15], the system named is NCI-H1395 cells. Kind of data set: Proliferation assay in LKB1-null cells, 72 h. It counts as cell-based. Conditions: Homo sapiens. The protocol:
as §3, §4

Data set [16] concerns A549 harboring LKB1-null/WT/3KR. As to the kind of experiment: Proliferation assay in cells harboring LKB1-null/WT/3KR. Conditions: series of concentrations, 72 h. It counts as cell-based.
Description: as §4

The target of data set [17] is Ataxin-3 (Homo sapiens, UniProt P54252). Kind of data set: In vitro ubiquitin-AMC assay with GST-Ataxin-3. It counts as biochemical. The following applies: incubated with GST-Ataxin-3 at 37 °C for 30 min.
Sequence of Ataxin-3 (P54252 whole entry): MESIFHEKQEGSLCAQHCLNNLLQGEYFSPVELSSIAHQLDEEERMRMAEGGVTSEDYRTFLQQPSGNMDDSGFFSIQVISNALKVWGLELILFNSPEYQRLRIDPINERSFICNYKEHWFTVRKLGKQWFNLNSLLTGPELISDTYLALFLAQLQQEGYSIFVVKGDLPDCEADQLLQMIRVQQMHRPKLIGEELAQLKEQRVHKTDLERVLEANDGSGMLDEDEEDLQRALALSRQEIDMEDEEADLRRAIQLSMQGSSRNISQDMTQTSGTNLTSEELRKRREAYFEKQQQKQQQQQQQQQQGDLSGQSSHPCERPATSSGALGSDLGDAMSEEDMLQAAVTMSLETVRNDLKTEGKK
Description: as §1

Data set [18] relates to NCI-H1299 xenografted tumors. As to the kind of experiment: TUNEL assay in xenografted tumors. It counts as in vivo, BALB/c-Nude mice. The following applies: oral administration, in situ TUNEL.
Description: Apoptosis in xenografted tumors was detected by a TUNEL assay kit (Beyotime Biotechnology, Shanghai, China), according to the manufacturer's protocols. Images were captured by a fluorescence microscope.
as §4

Regarding `O=C1c2ccncc2C(=O)c2c1nnn2Cc1cc(F)cc(Cl)c1` [HY041004, 3-(3-chloro-5-fluorobenzyl)-3H-[1,2,3] triazolo[4,5-g]isoquinoline-4,9-dione], the melting point was in the range of 172 to 174 °C. For the same compound, the IC50 in data set [1] was determined as 12800 nM. For the same compound, 470 nM corresponded to half-maximal inhibition in [2] (IC50). For the same compound, the IC50 in data set [3] was 0.13 µM. The IC50 in data set [4] was 0.14 µM. Also, in data set [5], the IC50 was 0.1 µM. In addition, the IC50 in [6] is 0.12 µM. Further, the half-maximal inhibitory concentration (IC50) in data set [7] was found to be 0.122 µM. For the same compound, the Cell apoptosis result in data set [8] is “induced cell apoptosis in a concentration-dependent manner”. The same compound displayed an IC50 in [9] (average of five LKB1-null cell lines) of 0.52 µM. Moreover, the “Susceptibility of LKB1-null cell lines” value in data set [9] (compared with LKB1 wild-type NSCLC cell lines) is “less than that in LKB1 wild-type NSCLC cell lines”. Besides, in data set [10] (50 mg/kg orally twice daily), the “Tumor Weight” value was 1.181 g and 1.18 ± 0.49 g; the T/C is reported as 64.71%. Further, in [10] (100 mg/kg orally twice daily), the “Tumor Weight” value is 0.901 g and 0.90 ± 0.23 g; the T/C stood at 43.88%. Further, the IC50 in data set [11] amounted to 0.24 µM. In data set [12], this compound gave an IC50 of 0.73 µM. In data set [13], this compound registered an IC50 of 0.72 µM. Also, in data set [14], the IC50 turned out to be 0.46 µM. The compound further yielded an IC50 in data set [15] of 0.46 µM. For the same compound, the “Anti-proliferative effect upon exogenous introduction of LKB1-WT, but not 3KR” value in data set [16] was “strengthen the anti-proliferative effect”. This compound also came in with an IC50 in data set [17] of 5400 nM. Besides, the Intratumor cell apoptosis result in data set [18] is “induced intratumor cell apoptosis”.
